According to patent US12338243B2, “P2X7 modulators” (JANSSEN PHARMACEUTICA NV, priority 2014, dated 2025):

Key:
[1] = biological target: T1, P2X7 (Homo sapiens, UniProt Q99572); test: Ca2+ flux (FLIPR) in 1321N1 cells expressing recombinant human P2X7 channel; format: cell-based; set-up: expressed in transfected cells; host or cells: 1321N1 cells; details: 250 μM BzATP
T1 sequence (Q99572 1-595): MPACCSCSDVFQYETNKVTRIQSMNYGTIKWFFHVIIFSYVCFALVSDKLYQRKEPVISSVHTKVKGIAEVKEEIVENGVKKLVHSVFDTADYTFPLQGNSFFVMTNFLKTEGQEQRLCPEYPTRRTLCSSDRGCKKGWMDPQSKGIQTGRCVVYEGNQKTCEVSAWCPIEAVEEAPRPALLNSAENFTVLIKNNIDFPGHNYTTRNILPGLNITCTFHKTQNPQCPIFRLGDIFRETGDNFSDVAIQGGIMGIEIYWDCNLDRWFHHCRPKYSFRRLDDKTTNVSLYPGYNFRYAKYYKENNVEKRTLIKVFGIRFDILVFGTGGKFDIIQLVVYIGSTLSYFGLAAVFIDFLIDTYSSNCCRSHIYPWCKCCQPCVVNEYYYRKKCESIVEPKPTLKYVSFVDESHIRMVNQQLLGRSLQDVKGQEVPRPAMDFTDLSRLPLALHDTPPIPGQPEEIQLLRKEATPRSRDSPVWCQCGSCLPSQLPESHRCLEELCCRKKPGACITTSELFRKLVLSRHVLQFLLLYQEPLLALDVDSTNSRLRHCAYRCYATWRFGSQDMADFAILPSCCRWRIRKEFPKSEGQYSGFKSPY
Outline: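 1321N1 cells expressing recombinant human P2X7, loaded 60 min with Calcium-4 dye in HEPES buffer pH 7.40 (1 mM CaCl2, 1 mM MgCl2), preincubated 30 min with compounds. Fluorescence change recorded 180 seconds after agonist addition.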

[2] = biological target: T1, P2X7; test: Radioligand binding, human P2X7-1321N1 cell membranes, tritiated A-804598
Description: (§1) P2X7 Antagonism in Recombinant Human P2X7 Cells or Recombinant Rat P2X7 Cells: (a) Ca^2+ Flux and (b) Radioligand Binding

[3] = biological target: T2, rat P2X7 (Rattus norvegicus, UniProt Q64663); test: Ca2+ flux (FLIPR) in 1321N1 cells expressing recombinant rat P2X7 channel; details: FLIPR (rat) IC50 (μM), 250 μM BzATP
T2 sequence (Q64663 1-595): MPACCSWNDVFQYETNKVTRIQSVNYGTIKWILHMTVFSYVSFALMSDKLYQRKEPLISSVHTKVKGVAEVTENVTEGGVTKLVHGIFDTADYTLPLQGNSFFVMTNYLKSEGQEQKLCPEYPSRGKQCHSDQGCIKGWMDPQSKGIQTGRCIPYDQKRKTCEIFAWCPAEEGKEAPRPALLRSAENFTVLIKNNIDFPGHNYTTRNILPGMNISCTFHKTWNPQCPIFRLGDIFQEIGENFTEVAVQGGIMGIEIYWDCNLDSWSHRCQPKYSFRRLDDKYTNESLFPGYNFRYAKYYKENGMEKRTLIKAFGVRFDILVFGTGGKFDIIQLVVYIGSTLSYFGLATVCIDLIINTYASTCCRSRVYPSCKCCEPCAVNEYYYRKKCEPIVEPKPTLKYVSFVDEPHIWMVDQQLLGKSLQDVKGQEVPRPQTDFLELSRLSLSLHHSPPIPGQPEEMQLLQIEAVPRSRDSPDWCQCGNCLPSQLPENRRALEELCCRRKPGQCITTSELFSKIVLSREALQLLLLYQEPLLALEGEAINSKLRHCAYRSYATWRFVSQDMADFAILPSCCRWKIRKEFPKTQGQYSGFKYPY

[4] = biological target: T2, rat P2X7; test: Radioligand binding, rat P2X7-1321N1 cell membranes, tritiated A-804598
Description: as §1

| SMILES | IC50 [1] [nM] | Ki [2] [nM] | IC50 [3] [µM] | Ki [4] [nM] |
| --- | --- | --- | --- | --- |
| Cc1nnc2n1CCN(C(=O)c1cccc(C(F)(F)F)c1Cl)[C@H]2c1ccc(F)cc1 [Example 115, (S)-(2-chloro-3-(trifluoromethyl)phenyl)(8-(4-fluorophenyl)-3-methyl-5,6-dihydro-[1,2,4]triazolo[4,3-a]pyrazin-7(8H)-yl)methanone] | 8 | 10 | 0.623 |  |
| C[C@H]1Cn2c(nnc2-c2cccc(F)c2)CN1C(=O)c1cccc(C(F)(F)F)c1Cl [Example 42, (S)-(2-chloro-3-(trifluoromethyl)phenyl)(3-(3-fluorophenyl)-6-methyl-5,6-dihydro-[1,2,4]triazolo[4,3-a]pyrazin-7(8H)-yl)methanone] | 2130 |  | 9.23 | 18.6 |
| O=C(c1cccc(C(F)(F)F)c1Cl)N1CCn2c(C3CC3)nnc2[C@@H]1c1ccc(F)cc1 [Example 107, (S)-(2-chloro-3-(trifluoromethyl)phenyl)(3-cyclopropyl-8-(4-fluorophenyl)-5,6-dihydro-[1,2,4]triazolo[4,3-a]pyrazin-7(8H)-yl)methanone] | 12.8 | 10 | 0.178 |  |
| Cc1nnc2n1CCN(C(=O)c1cccc(Cl)c1Cl)[C@@H]2c1ccccn1 [Example 112, (R)-(2,3-dichlorophenyl)(3-methyl-8-(pyridin-2-yl)-5,6-dihydro-[1,2,4]triazolo[4,3-a]pyrazin-7(8H)-yl)methanone] | 134 | 44.7 | 2.82 |  |
| Cc1nnc2n1CCN(C(=O)c1cccc(Cl)c1Cl)[C@H]2c1ccc(F)cc1 [Example 105, (S)-(2,3-dichlorophenyl)(8-(4-fluorophenyl)-3-methyl-5,6-dihydro-[1,2,4]triazolo[4,3-a]pyrazin-7(8H)-yl)methanone] | 98.6 | 21.9 | 9.95 |  |
| O=C(c1cccc(C(F)(F)F)c1Cl)N1CCn2c(-c3ccco3)nnc2[C@@H]1c1ccccc1 [Example 84, (S)-(2-chloro-3-(trifluoromethyl)phenyl)(3-(furan-2-yl)-8-phenyl-5,6-dihydro-[1,2,4]triazolo[4,3-a]pyrazin-7(8H)-yl)methanone] | 2.5 | 20 | 0.0031 |  |
| O=C(c1ccc(F)c(Cl)c1Cl)N1CCn2c(nnc2C(F)(F)F)[C@H]1c1ccccc1 [Example 124, (R)-(2,3-dichloro-4-fluorophenyl)(8-phenyl-3-(trifluoromethyl)-5,6-dihydro-[1,2,4]triazolo[4,3-a]pyrazin-7(8H)-yl)methanone] | 10.6 | 7.9 | 0.288 |  |
| C[C@H]1Cn2c(nnc2-c2cccc(F)c2)CN1C(=O)c1ccc(F)c(Cl)c1Cl [Example 43, (S)-(2,3-dichloro-4-fluorophenyl)(3-(3-fluorophenyl)-6-methyl-5,6-dihydro-[1,2,4]triazolo[4,3-a]pyrazin-7(8H)-yl)methanone] | 9710 |  | > 10 | 133 |
| Cc1nnc2n1CCN(C(=O)c1cccc(C(F)(F)F)c1Cl)[C@@H]2c1ccccn1 [Example 91, (R)-(2-chloro-3-(trifluoromethyl)phenyl)(3-methyl-8-(pyridin-2-yl)-5,6-dihydro-[1,2,4]triazolo[4,3-a]pyrazin-7(8H)-yl)methanone] | 7.5 | 31.6 | 2.13 |  |
| Cc1c(C(=O)N2CCn3c(C)nnc3[C@@H]2c2ccc(F)cc2)cccc1C(F)(F)F [Example 117, (S)-(8-(4-fluorophenyl)-3-methyl-5,6-dihydro-[1,2,4]triazolo[4,3-a]pyrazin-7(8H)-yl)(2-methyl-3-(trifluoromethyl)phenyl)methanone] | 64 | 20 | 7.03 |  |
| C[C@H]1c2nnc(-c3ccccn3)n2CCN1C(=O)c1cccc(Cl)c1Cl (single isomer, unassigned) [Example 3] |  |  | > 10 | 1780 |
| Cc1c(C(=O)N2CCn3c(nnc3C(F)(F)F)[C@H]2c2ccccc2)cccc1C(F)(F)F [Example 122, (R)-(2-methyl-3-(trifluoromethyl)phenyl)(8-phenyl-3-(trifluoromethyl)-5,6-dihydro-[1,2,4]triazolo[4,3-a]pyrazin-7(8H)-yl)methanone] | 9.8 | 10 | 0.262 |  |
| O=C(c1cccc(Cl)c1Cl)N1CCn2c(nnc2C(F)(F)F)C1c1ccccc1 (racemic) [Example 90, (±)-(2,3-dichlorophenyl)(8-phenyl-3-(trifluoromethyl)-5,6-dihydro-[1,2,4]triazolo[4,3-a]pyrazin-7(8H)-yl)methanone] | 11.9 | 20 | 0.964 |  |

More lines, now with the values ahead:

| IC50 [1] [nM] | Ki [2] [nM] | IC50 [3] [µM] | Ki [4] [nM] | SMILES |
| --- | --- | --- | --- | --- |
| 15.1 | 100 | 0.0071 |  | O=C(c1cccc(C(F)(F)F)c1Cl)N1CCn2c(-c3ccco3)nnc2C1c1ccccc1 (racemic) [Example 79, (±)-(2-chloro-3-(trifluoromethyl)phenyl)(3-(furan-2-yl)-8-phenyl-5,6-dihydro-[1,2,4]triazolo[4,3-a]pyrazin-7(8H)-yl)methanone] |
| 255 | 126 | 28.2 |  | O=C(c1cccc(C(F)(F)F)c1Cl)N1CCn2c(nnc2C(F)(F)F)C1c1cccnc1 (racemic) [Example 127, (±)-(2-chloro-3-(trifluoromethyl)phenyl)(8-(pyridin-3-yl)-3-(trifluoromethyl)-5,6-dihydro-[1,2,4]triazolo[4,3-a]pyrazin-7(8H)-yl)methanone] |
| 56.3 | 20 | 0.395 |  | CC(O)c1nnc2n1CCN(C(=O)c1cccc(C(F)(F)F)c1Cl)C2c1ccccc1 (racemic) [Example 80, (±)-(2-chloro-3-(trifluoromethyl)phenyl)(3-(1-hydroxyethyl)-8-phenyl-5,6-dihydro-[1,2,4]triazolo[4,3-a]pyrazin-7(8H)-yl)methanone] |
| 483 | 316 | 2.05 |  | Cc1nnc2n1CCN(C(=O)c1cccc(C(F)(F)F)c1Cl)[C@@H]2c1ccccc1 [Example 67, (R)-(2-chloro-3-(trifluoromethyl)phenyl)(3-methyl-8-phenyl-5,6-dihydro-[1,2,4]triazolo[4,3-a]pyrazin-7(8H)-yl)methanone] |
| 68.5 | 50.1 | 0.291 |  | O=C(c1cccc(C(F)(F)F)c1F)N1CCn2c(nnc2C(F)(F)F)[C@H]1c1ccccc1 [Example 128, (R)-(2-fluoro-3-(trifluoromethyl)phenyl)(8-phenyl-3-(trifluoromethyl)-5,6-dihydro-[1,2,4]triazolo[4,3-a]pyrazin-7(8H)-yl)methanone] |
| 8590 |  | > 10 | 178 | COc1ccc(-c2nnc3n2C[C@H](C)N(C(=O)c2cccc(Cl)c2Cl)C3)nc1 [Example 72, (S)-(2,3-dichlorophenyl)(3-(5-methoxypyridin-2-yl)-6-methyl-5,6-dihydro-[1,2,4]triazolo[4,3-a]pyrazin-7(8H)-yl)methanone] |
|  |  | 0.815 | 9.3 | C[C@@H]1c2nnc(-c3ccccn3)n2CCN1C(=O)c1cccc(Cl)c1Cl (single isomer, unassigned) [Example 2] |
| 27.8 | 31.6 | 5.06 |  | Cc1nnc2n1CCN(C(=O)c1cccc(C(F)(F)F)c1Cl)C2c1ccc(F)cc1 (racemic) [Example 101, (±)-(2-chloro-3-(trifluoromethyl)phenyl)(8-(4-fluorophenyl)-3-methyl-5,6-dihydro-[1,2,4]triazolo[4,3-a]pyrazin-7(8H)-yl)methanone] |
| 19.5 | 100 | 0.0177 |  | CC1c2nnc(-c3ccccn3)n2CCN1C(=O)c1ccnc(C(F)(F)F)c1Cl (stereo not shown) [Example 16, (3-chloro-2-(trifluoromethyl)pyridin-4-yl)(8-methyl-3-(pyridin-2-yl)-5,6-dihydro-[1,2,4]triazolo[4,3-a]pyrazin-7(8H)-yl)methanone] |
